Results published in ChEMBL document CHEMBL3991944, “Enantiomers of spiro-oxindole compounds and their uses as therapeutic agents” (2013).
Values after ≈ are worked out from the molar mass of the structure shown. Active and inactive are the calls of the source.

Experiments:
[1] = Solubility of the compound in 60:40 of labrasol/PEG 400; type: physicochemical
[2] = Solubility of the compound in propylene glycol; type: physicochemical
[3] = molecular target: Sodium channel protein type 9 subunit alpha (Homo sapiens) (UniProt Q15858); details: HEK293
[4] = Solubility of the compound in labrasol; type: physicochemical
[5] = Solubility of the compound in tween 80; type: physicochemical
[6] = Solubility of the compound in 60:40 of labrasol/transcutol; type: physicochemical
[7] = Solubility of the compound in capryol 90; type: physicochemical
[8] = test system: Rattus norvegicus; assay: Analgesic activity in rat model of chronic constriction injury-induced neuropathic pain assessed as reversal of pain response at 2% (w/v) administered topically as ointment measured upto 1 hr by electrovonfrey anesthesiometry; type: functional
[9] = Solubility of the compound in PEG 400; type: physicochemical
[10] = Solubility of the compound in 60:40 of labrasol/capryol 90; type: physicochemical
[11] = test system: Rattus norvegicus; assay: Analgesic activity in rat model of CFA-induced chronic inflammatory pain assessed as reduction in nociceptive threshold at 200 mg/kg, po by Von Frey filament assay; type: functional, organism-based
[12] = test system: Rattus norvegicus; assay: Drug level in rat model of CFA-induced chronic inflammatory pain assessed as high plasma concentration at 200 mg/kg, po […]; type: ADME, organism-based; details: in vivo
[13] = test system: Homo sapiens; assay: Toxicity in human assessed as serious adverse events at 4 to 8% (w/w) administered topically as ointment for 21 consecutive days during phase-1 clinical trial; details: topical_or_ocular
[14] = test system: Homo sapiens; assay: Toxicity in human assessed as decrease in skin irritation at 4 to 8% (w/w) administered topically as ointment for 21 consecutive days measured 7 days post last dose during phase-1 clinical trial; details: topical_or_ocular, 168 h
[15] = test system: Homo sapiens; assay: Toxicity in human assessed as decrease in skin irritation at 4 to 8% (w/w) administered topically as ointment for 21 consecutive days during phase-1 clinical trial; details: topical_or_ocular
[16] = test system: Homo sapiens; assay: Toxicity in human assessed as change in physical appearance at 4 to 8% (w/w) administered topically as ointment for 21 consecutive days during phase-1 clinical trial; details: topical_or_ocular
[17] = test system: Homo sapiens; assay: Toxicity in human assessed as change in vital signs at 4 to 8% (w/w) administered topically as ointment for 21 consecutive days during phase-1 clinical trial; details: topical_or_ocular
[18] = test system: Homo sapiens; assay: Toxicity in human assessed as change in pulse rate at 4 to 8% (w/w) administered topically as ointment for 21 consecutive days during phase-1 clinical trial; details: topical_or_ocular
[19] = test system: Homo sapiens; assay: Toxicity in human assessed as change in laboratory assessments at 4 to 8% (w/w) administered topically as ointment for 21 consecutive days during phase-1 clinical trial; details: topical_or_ocular
[20] = test system: Homo sapiens; assay: Toxicity in human assessed as mortality at 4 to 8% (w/w) administered topically as ointment for 21 consecutive days during phase-1 clinical trial; details: topical_or_ocular
[21] = test system: Rattus norvegicus; assay: Analgesic activity in rat model of CFA-induced chronic inflammatory pain assessed as increase in Von Frey mechanical paw withdrawal threshold at 8% (w/v) administered topically by electrovonfrey anesthesiometry relative to baseline; type: functional
[22] = test system: Homo sapiens; assay: Toxicity in human assessed as change in quiescent resting state at 4 to 8% (w/w) administered topically as ointment for 21 consecutive days during phase-1 clinical trial; details: topical_or_ocular
[23] = test system: Homo sapiens; assay: Analgesic activity in human assessed as dental pain relief at 500 mg administered as single dose measured 4 to 12 hrs post dose; type: functional
[24] = test system: Homo sapiens; assay: Toxicity in human assessed as change in QTc interval at 4 to 8% (w/w) administered topically as ointment for 21 consecutive days during phase-1 clinical trial; details: topical_or_ocular
[25] = organism: Homo sapiens; assay: Toxicity in human assessed as increase in discomfort at 0.1% compound solution for 4 consecutive days during phase-1 clinical trial

Sodium channel protein type 9 subunit alpha (Homo sapiens), sequence (Q15858 whole entry, looked up): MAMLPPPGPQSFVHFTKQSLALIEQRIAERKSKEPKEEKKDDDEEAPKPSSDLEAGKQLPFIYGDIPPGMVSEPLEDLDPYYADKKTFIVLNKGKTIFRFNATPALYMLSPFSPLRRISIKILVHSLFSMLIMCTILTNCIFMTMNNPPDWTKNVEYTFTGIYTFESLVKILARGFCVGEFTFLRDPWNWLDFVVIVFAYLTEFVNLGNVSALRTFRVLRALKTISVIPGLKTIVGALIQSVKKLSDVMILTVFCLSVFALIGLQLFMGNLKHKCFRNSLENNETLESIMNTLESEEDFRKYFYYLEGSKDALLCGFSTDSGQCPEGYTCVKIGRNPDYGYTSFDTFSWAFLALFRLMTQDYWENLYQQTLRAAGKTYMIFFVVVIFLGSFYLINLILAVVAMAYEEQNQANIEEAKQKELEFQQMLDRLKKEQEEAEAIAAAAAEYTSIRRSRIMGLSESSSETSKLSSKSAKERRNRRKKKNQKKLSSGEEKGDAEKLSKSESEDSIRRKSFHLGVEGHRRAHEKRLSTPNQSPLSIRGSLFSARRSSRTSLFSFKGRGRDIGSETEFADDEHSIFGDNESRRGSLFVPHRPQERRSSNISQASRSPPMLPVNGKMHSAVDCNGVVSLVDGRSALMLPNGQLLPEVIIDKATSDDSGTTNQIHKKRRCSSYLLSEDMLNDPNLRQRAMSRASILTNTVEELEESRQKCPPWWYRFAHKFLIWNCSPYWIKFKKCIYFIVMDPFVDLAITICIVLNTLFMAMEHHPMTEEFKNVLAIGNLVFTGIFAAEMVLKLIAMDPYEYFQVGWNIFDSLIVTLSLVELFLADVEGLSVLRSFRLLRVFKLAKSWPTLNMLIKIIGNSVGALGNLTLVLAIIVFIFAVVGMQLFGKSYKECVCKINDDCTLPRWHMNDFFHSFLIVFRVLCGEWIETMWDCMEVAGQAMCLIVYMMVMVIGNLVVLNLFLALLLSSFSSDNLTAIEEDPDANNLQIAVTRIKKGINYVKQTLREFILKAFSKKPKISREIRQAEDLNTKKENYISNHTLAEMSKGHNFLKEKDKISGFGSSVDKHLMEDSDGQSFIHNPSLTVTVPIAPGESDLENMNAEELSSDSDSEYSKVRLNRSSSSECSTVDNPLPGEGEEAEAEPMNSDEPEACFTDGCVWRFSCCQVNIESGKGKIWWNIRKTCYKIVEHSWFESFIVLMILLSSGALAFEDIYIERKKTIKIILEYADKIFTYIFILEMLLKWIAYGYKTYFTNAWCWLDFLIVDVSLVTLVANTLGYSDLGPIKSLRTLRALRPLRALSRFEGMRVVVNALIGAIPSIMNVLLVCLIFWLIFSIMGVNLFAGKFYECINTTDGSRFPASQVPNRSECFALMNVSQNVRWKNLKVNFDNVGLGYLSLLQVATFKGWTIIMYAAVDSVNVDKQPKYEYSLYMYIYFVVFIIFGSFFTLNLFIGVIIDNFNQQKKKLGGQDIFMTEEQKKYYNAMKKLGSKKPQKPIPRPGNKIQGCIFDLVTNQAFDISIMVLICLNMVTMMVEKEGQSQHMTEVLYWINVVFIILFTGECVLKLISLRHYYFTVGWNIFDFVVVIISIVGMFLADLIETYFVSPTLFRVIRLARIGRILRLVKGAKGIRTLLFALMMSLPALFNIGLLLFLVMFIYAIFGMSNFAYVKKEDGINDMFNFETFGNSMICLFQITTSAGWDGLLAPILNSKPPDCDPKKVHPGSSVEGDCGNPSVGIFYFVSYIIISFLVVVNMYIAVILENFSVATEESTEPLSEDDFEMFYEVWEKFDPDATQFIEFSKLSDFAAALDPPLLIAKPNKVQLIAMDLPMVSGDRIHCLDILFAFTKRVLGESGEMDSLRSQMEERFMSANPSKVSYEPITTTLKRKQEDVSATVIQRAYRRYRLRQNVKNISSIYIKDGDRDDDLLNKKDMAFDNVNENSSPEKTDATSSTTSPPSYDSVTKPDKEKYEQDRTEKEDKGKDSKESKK

Structure (SMILES)	solubility [1] [mg/mL]	Kr [3] [µM]	solubility [4] [mg/mL]	solubility [5] [mg/mL]	solubility [6] [mg/mL]	solubility [7] [mg/mL]	Activity [8]	solubility [9] [mg/mL]	solubility [10] [mg/mL]	Activity [11]	also measured
O=C1N(Cc2ccc(C(F)(F)F)o2)c2ccccc2C12COc1cc3c(cc12)OCO3 (configuration not stated)	70.4 (≈ 164 mM)	> 10	72.5 (≈ 169 mM)	64 (≈ 149 mM)	74.2 (≈ 173 mM)	18.1 (≈ 42.2 mM)	Active	< 50	44.4 (≈ 103 mM)		solubility [2]: 2.7 mg/mL (≈ 6.29 mM)
O=C1N(Cc2ccc(C(F)(F)F)o2)c2ccccc2[C@@]12COc1cc3c(cc12)OCO3		> 10					inactive			Active	Drug uptake [12]: Active
O=C1N(Cc2ccc(C(F)(F)F)o2)c2ccccc2[C@]12COc1cc3c(cc12)OCO3 [FUNAPIDE]	182 (≈ 424 mM)	> 10	231 (≈ 538 mM)	> 123	186 (≈ 433 mM)	96 (≈ 224 mM)	Active	> 55	191 (≈ 445 mM)	Active	Activity [13]: Non-Toxic; Activity [14]: Non-Toxic; Activity [15]: Non-Toxic; Activity [16]: Non-Toxic; Activity [17]: Non-Toxic; Activity [18]: Non-Toxic; Activity [19]: Non-Toxic; Activity [20]: Non-Toxic; Activity [21]: 45.06 - 45.1%; Activity [22]: Non-Toxic; Activity [23]: Active; Activity [24]: Non-Toxic
CCCCCCCCCCCCOS(=O)(=O)[O-].[Na+] [SODIUM LAURYL SULFATE]											Activity [25]: Toxic
